Source: patent US20240391931A1 (Bristol-Myers Squibb Company, priority 2021, published 2024)
Counter-ions that a name gives are not always drawn.

Target: HER2YVMA (Homo sapiens, UniProt P04626, INS775YVMA)
Assay: HER2 signaling (pHER2) in Hek293-HER2YVMA cells
Format: cell-based
Set-up: expressed in transfected cells; host or cells: HEK293 (pool), Ba/F3 (clones), BEAS2B (clones); lentiviral vector pCDH-CMV-MCS-EF1-Neo
Conditions: 1.5 hr compound, 1% FBS, read-out: HEKYVMA pHER2 EC50
Method: Cell culture, plasmid cloning, and lentiviral transduction were carried out according to standard procedures. The Human HER2 cDNA construct in pCMV6-Entry for the HER2 wildtype (WT) expression was obtained from Origene. The HER2 cDNA including the 12-nucleotide insertion corresponding to YVMA insertion (HER2YVMA) was codon optimized, synthesized and cloned by GenScript (Piscataway, NJ) in pcDNA3.1. The lentiviral constructs expressing HER2YVMA and HER2 WT were sub-cloned using PCR at System Biosciences (SBI, Mountainview, CA) into lentiviral vectors pCDH-CMV-MCS-EF1-Neo and lentiviral particles were generated.
Engineered lines expressing HER2YVMA and HER2 WT were prepared in HEK293 (human embryonic kidney cells), Ba/F3 (Interleukin 3 (IL3)-dependent murine pro B cell line), and BEAS2B (primary immortalized human bronchial epithelial cell line). Ba/F3, BEAS2B, and HEK293 cells were obtained from the American Type Culture Collection (ATCC, Manassas, VA). Parental Ba/F3 cells were grown in suspension in complete RPMI 1640 supplemented with 10% FBS and 1% P/S and 10 ng/ml interleukin 3 (IL3, Sigma-Aldrich). Hek293 and BEAS2B cells were grown as monolayers in DMEM supplemented with 10% FBS and 1% P/S. All cells were maintained and propagated in a humidified 5% CO2 incubator at 37° C.
To generate Ba/F3, BEAS2B, and Hek-293 cells engineered with lentivirus to express HER2 WT or HER2YVMA, the cells were transduced with lentiviruses at multiplicity of infection (MOI) of 1 or 10; transduced cells were selected and maintained with G418 ([…]) (Geneticin, Life Technologies, Carlsbad, CA). Ba/F3 engineered cells were subjected to gradual withdrawal of interleukin 3 (IL-3, Sigma-Aldrich). After selection, IL3 independent Ba/F3 HER2YVMA, and BEAS2B HER2YVMA cells were cloned by limiting dilution. Hek293 HER2YVMA cells were used as pool. HER2 and phospho HER2 levels were confirmed by flow cytometery and immunoassay (MSD, Meso-Scale Discovery, Rockville, Maryland).
HER2 signaling was assessed in BT474 and N87 cell lines which endogenously overexpress the HER2 wildtype (WT) protein, in NCI-H1781 cells which endogenously expresses a HER2 mutant protein containing a VC insertion in the kinase domain (HER2VC or G776delinsVC), and in engineered cell lines transduced to express the Her2 mutant protein containing the YVMA insertion (Hek293-HER2YVMA and BEAS2B-HER2YVMA).
BT474, N87, and NCI-H1781 were plated in 96-well tissue-culture treated plates (Corning Costar, Sigma-Aldrich) in full media and incubated overnight. Hek293-HER2YVMA and BEAS2B-HER2YVMA cells were plated in 96-well poly-D-lysine treated plates (BD Bioscience, San Jose, CA). For treatment with test compounds, the media was replaced with corresponding low serum media (1% FBS) containing test compound at 1.1, 0.37, 0.12, 0.041, 0.014, 0.005, 0.0014, 0.0005 μM or DMSO control (0.1%). Cells were incubated with compound for 1.5 hr at 37° C. After compound treatment, the media was removed and cells were lysed for 30 min on ice in complete MSD lysis buffer (prepared using MSD base lysis buffer (Meso-Scale Discovery) supplemented with cOmplete, EDTA-free Protease inhibitor cocktail (Roche), Phosphatase Inhibitor Cocktails 2 and 3 (Sigma-Aldrich), and 1 mM PMSF (Sigma-Aldrich)). Lysates were stored at −70° C. until further analysis.
HER2 signaling was evaluated using phospho (Tyr1248)/total ErbB2 whole cell lysate MSD plates (Meso-Scale Discovery, Gaithersburg, MD). The phospho HER2 signal was normalized to total HER2 for each sample; results are reported as % DMSO control. The normalized data was fitted using a sigmoidal curve analysis program (Graph Pad Prism version 6) with variable Hill slope to determine EC50 values.
The HER2 signaling results are provided in Table 4, under columns titled “BT474-pHER2 EC50”, “N87-pHER2 EC50”, and “NCI-H1781-pHER2 EC50”. […]

Sequence of HER2YVMA (P04626 with tags, fused parts or gaps INS775YVMA): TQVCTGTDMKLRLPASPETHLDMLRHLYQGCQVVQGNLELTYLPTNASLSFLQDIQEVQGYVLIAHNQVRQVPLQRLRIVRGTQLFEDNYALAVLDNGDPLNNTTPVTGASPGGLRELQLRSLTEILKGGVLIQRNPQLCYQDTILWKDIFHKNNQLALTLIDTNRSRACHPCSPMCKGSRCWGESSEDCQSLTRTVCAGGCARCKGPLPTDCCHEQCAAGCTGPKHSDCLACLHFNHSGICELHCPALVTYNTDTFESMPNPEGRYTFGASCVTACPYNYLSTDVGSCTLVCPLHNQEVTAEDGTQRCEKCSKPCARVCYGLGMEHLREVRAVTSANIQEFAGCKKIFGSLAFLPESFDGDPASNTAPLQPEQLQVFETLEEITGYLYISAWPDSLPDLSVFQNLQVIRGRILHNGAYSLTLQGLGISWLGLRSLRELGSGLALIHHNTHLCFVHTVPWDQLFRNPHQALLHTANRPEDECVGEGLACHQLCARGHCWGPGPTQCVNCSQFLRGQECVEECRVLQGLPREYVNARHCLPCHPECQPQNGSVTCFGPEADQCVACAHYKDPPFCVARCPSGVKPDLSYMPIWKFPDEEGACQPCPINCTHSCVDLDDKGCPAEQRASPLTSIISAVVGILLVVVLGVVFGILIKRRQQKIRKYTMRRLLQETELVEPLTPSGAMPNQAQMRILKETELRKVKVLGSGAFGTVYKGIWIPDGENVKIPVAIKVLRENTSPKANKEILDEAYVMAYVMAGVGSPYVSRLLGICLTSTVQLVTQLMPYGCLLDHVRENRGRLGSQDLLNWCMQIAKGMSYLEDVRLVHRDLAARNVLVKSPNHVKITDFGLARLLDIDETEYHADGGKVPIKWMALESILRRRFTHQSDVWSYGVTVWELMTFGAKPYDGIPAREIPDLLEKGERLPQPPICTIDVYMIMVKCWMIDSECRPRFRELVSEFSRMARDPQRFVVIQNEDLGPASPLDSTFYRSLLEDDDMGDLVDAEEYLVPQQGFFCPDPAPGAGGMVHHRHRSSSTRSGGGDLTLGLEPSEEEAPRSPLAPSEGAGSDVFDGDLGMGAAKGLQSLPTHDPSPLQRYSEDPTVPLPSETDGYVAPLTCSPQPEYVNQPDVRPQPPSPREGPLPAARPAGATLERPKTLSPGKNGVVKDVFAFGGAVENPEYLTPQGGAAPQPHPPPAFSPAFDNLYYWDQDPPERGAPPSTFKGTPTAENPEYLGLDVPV

Row | SMILES | EC50
1 | Cc1ccc(Oc2ccc(Nc3ncnc4sc5c(c34)C[C@@H](C)N(C(=O)/C=C/CN(C)C)[C@H]5C)cc2C)cn1 (racemic) [Compound 149, (E)-1-(6,8-cis-dimethyl-4-((3-methyl-4-((6-methylpyridin-3-yl)oxy)phenyl)amino)-5,8-dihydropyrido[4′,3′:4,5]thieno[2,3-d]pyrimidin-7(6H)-yl)-4-(dimethylamino)but-2-en-1-one] | < 100 nM
2 | Cc1ccc(Oc2ccc(Nc3ncnc4sc5c(c34)C[C@@H](C)N(C(=O)/C=C/CN(C)C)[C@@H]5C)cc2C)cn1 (racemic) [Compound 165, (E)-1-(6,8-trans-dimethyl-4-((3-methyl-4-((6-methylpyridin-3-yl)oxy)phenyl)amino)-5,8-dihydropyrido[4′,3′:4,5]thieno[2,3-d]pyrimidin-7(6H)-yl)-4-(dimethylamino)but-2-en-1-one] | 100 to 350 nM
3 | C=CC(=O)N1[C@H](C)Cc2c(sc3ncnc(Nc4ccc(Oc5ccc(C)nc5)c(C)c4)c23)[C@H]1C (racemic) [Compound 166, 1-(6,8-trans-dimethyl-4-((3-methyl-4-((6-methylpyridin-3-yl)oxy)phenyl)amino)-5,8-dihydropyrido[4′,3′:4,5]thieno[2,3-d]pyrimidin-7(6H)-yl)prop-2-en-1-one] | < 100 nM
4 | C=CC(=O)N1Cc2sc3ncnc(Nc4ccc(Oc5ccc(C)nc5)c(C)c4)c3c2C(C)C1 (single isomer, unassigned) [Compound 145] | < 100 nM
5 | C=CC(=O)N1Cc2sc3ncnc(Nc4ccc(Oc5ccc(C)nc5)c(C)c4)c3c2C(C)C1 (single isomer, unassigned) [Compound 146] | < 100 nM
6 | Cc1ccc(Oc2ccc(Nc3ncnc4sc5c(c34)C(C)N(C(=O)C=CCN(C)C)C5)cc2C)cn1 (single isomer, unassigned) [Compound 147] | < 100 nM
7 | Cc1ccc(Oc2ccc(Nc3ncnc4sc5c(c34)C(C)N(C(=O)C=CCN(C)C)C5)cc2C)cn1 (single isomer, unassigned) [Compound 148] | 350 to 1000 nM
8 | COc1ccc(Oc2ccc(Nc3ncnc4sc5c(c34)C(C)CN(C(=O)C=CCN(C)C)C5)cc2C)cn1 (single isomer, unassigned) [Compound 159] | < 100 nM
9 | COc1ccc(Oc2ccc(Nc3ncnc4sc5c(c34)C(C)CN(C(=O)C=CCN(C)C)C5)cc2C)cn1 (single isomer, unassigned) [Compound 160] | < 100 nM
10 | Cc1ccc(Oc2ccc(Nc3ncnc4sc5c(c34)CC(C)N(C(=O)C=CCN(C)C)C5C)cc2C)cn1 (single isomer, unassigned) [Compound 161] | < 100 nM
11 | Cc1ccc(Oc2ccc(Nc3ncnc4sc5c(c34)CC(C)N(C(=O)C=CCN(C)C)C5C)cc2C)cn1 (single isomer, unassigned) [Compound 162] | 100 to 350 nM
12 | Cc1ccc(Oc2ccc(Nc3ncnc4sc5c(c34)CN(C(=O)C=CCN(C)C)C5C)cc2C)cn1 (single isomer, unassigned) [Compound 169] | < 100 nM
13 | Cc1ccc(Oc2ccc(Nc3ncnc4sc5c(c34)CN(C(=O)C=CCN(C)C)C5C)cc2C)cn1 (single isomer, unassigned) [Compound 170] | 350 to 1000 nM
14 | Cc1ccc(Oc2ccc(Nc3ncnc4sc5c(c34)C(C)CN(C(=O)C=CCN3CCOCC3)C5)cc2C)cn1 (single isomer, unassigned) [Compound 176] | < 100 nM
15 | Cc1ccc(Oc2ccc(Nc3ncnc4sc5c(c34)C(C)CN(C(=O)C=CCN3CCOCC3)C5)cc2C)cn1 (single isomer, unassigned) [Compound 177] | < 100 nM
16 | Cc1ccc(Oc2ccc(Nc3ncnc4sc5c(c34)C(C)CN(C(=O)C=CCN(C)C(C)(C)C)C5)cc2C)cn1 (single isomer, unassigned) [Compound 178] | < 100 nM
17 | Cc1ccc(Oc2ccc(Nc3ncnc4sc5c(c34)C(C)CN(C(=O)C=CCN(C)C(C)(C)C)C5)cc2C)cn1 (single isomer, unassigned) [Compound 179] | < 100 nM
18 | C=CC(=O)N1CCc2c(sc3ncnc(Nc4ccc(Oc5cccnc5)c(Cl)c4)c23)C1 [Compound 6, 1-(4-((3-chloro-4-(pyridin-3-yloxy)phenyl)amino)-5,8-dihydropyrido[4′,3′:4,5]thieno[2,3-d]pyrimidin-7(6H)-yl)prop-2-en-1-one] | < 100 nM
19 | COc1cc(Nc2ncnc3sc4c(c23)CCN(C(=O)/C=C/CN(C)C)C4)ccc1Oc1ccccc1 [Compound 7, (E)-4-(dimethylamino)-1-(4-((3-methoxy-4-phenoxyphenyl)amino)-5,8-dihydropyrido[4′,3′:4,5]thieno[2,3-d]pyrimidin-7(6H)-yl)but-2-en-1-one] | < 100 nM
20 | Cc1ccc(Oc2ccc(Nc3ncnc4sc5c(c34)CCN(C(=O)/C=C/CN(C)C)C5)cc2C)cn1 [Compound 8, (E)-4-(Dimethylamino)-1-(4-((3-methyl-4-((6-methylpyridin-3-yl)oxy)phenyl)amino)-5,6-dihydropyrido[4′,3′:4,5]thieno[2,3-d]pyrimidin-7(8H)-yl)but-2-en-1-one] | < 100 nM
21 | C=CC(=O)N1CCc2c(sc3ncnc(Nc4ccc(Oc5cccnc5)c(C)c4)c23)C1 [Compound 11, 1-(4-((3-methyl-4-(pyridin-3-yloxy)phenyl)amino)-5,8-dihydropyrido[4′,3′:4,5]thieno[2,3-d]pyrimidin-7(6H)-yl)prop-2-en-1-one] | < 100 nM
22 | Cc1cc(Nc2ncnc3sc4c(c23)CCN(C(=O)/C=C/CN2CCOCC2)C4)ccc1Oc1ccc2ncnn2c1 [Compound 12] | < 100 nM
23 | Cc1ccc(Oc2ccc(Nc3ncnc4sc5c(c34)CCN(C(=O)/C=C/CN3CC4CCC(C3)O4)C5)cc2C)cn1 [Compound 13] | < 100 nM
24 | Cc1ccc(Oc2ccc(Nc3ncnc4sc5c(c34)CCN(C(=O)/C=C/CN3CC4CCC3C4)C5)cc2C)cn1 (stereo not shown) [Compound 14] | < 100 nM
25 | Cc1ccc(Oc2ccc(Nc3ncnc4sc5c(c34)CCN(C(=O)/C=C/CN3CC4CC(C3)O4)C5)cc2C)cn1 [Compound 15] | < 100 nM
26 | Cc1ccc(Oc2ccc(Nc3ncnc4sc5c(c34)CCN(C(=O)/C=C/CN3CC4CCC(C4)C3)C5)cc2C)cn1 [Compound 16, (E)-4-(3-azabicyclo[3.2.1]octan-3-yl)-1-(4-((3-methyl-4-((6-methylpyridin-3-yl)oxy)phenyl)amino)-5,8-dihydropyrido[4′,3′:4,5]thieno[2,3-d]pyrimidin-7(6H)-yl)but-2-en-1-one benzenesulfonate salt] | < 100 nM
27 | Cc1ccc(Oc2ccc(Nc3ncnc4sc5c(c34)CCN(C(=O)/C=C/CN3CCOCC3)C5)cc2C)cn1 [Compound 17, (E)-1-(4-((3-Methyl-4-((6-methylpyridin-3-yl)oxy)phenyl)amino)-5,6-dihydropyrido[4′,3′:4,5]thieno[2,3-d]pyrimidin-7(8H)-yl)-4-morpholinobut-2-en-1-one] | < 100 nM
28 | O=C(/C=C/CN1CCOCC1)N1CCc2c(sc3ncnc(Nc4ccc(Oc5ccc6ncnn6c5)c(Cl)c4)c23)C1 [Compound 18] | < 100 nM
